Tested on: GUMC-403
Test: viability at highest tested concentration (max response) relative to DMSO (% of DMSO control); higher = less cytotoxic
Conditions: library / dose series: MIPE library, 11-point 1:3 dilution; top concentration 46.1 µM; 48 h
Procedure, shortened: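 Patient-derived GUMC-403 papilloma cells grown by conditional reprogramming were plated at 700/well in 5 μL F + Y medium in 1536-well plates and incubated overnight at 37 °C. They then received 23 nL of MIPE 4.0 compounds by pin tool (11-point 1:3 series) for 48 h. CellTiter-Glo luminescence was read on a ViewLux and normalised with DMSO wells as 100% and empty wells as 0%. The value is viability at the highest tested concentration relative to DMSO control.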

How did the viability turn out when CCCn1c(=O)c2[nH]c(-c3cnn(Cc4cccc(C(F)(F)F)c4)c3)nc2n(CC)c1=O was run?
The viability was 119.

How did the viability turn out when Cc1cc(OCCCc2c(C(=O)O)n(Cc3cccnc3)c3c(-c4c(COc5ccc(N6CCN([S+](C)(=O)[O-])CC6)cc5)nn(C)c4C)cccc23)cc(C)c1Cl was run?
Its viability is 105.

Which viability does the source give for CN1CCN2c3ccccc3Cc3ccccc3C2C1 (stereo not drawn) here?
The viability was 106.

For C[C@@H]1C[C@@H]([C@H](O)CC2CC(=O)NC(=O)C2)C(=O)[C@@H](C)C1, which viability is on record?
The viability was 89.5.

COc1ccc(Cn2ccc3ccc(C(=O)NO)cc32)cc1 was tested. Which viability did it give?
Its viability is 108.

With CC1=C(/C=C/C(C)=C/C=C/C(C)=C\C(=O)O)C(C)(C)CCC1 as the compound, how does the viability read?
Its viability is 90.

How did the viability turn out when C[C@H]1CC2C3CCC/4=C/C(=O)/C=C\[C@]4(C)[C@@]3(F)[C@@H](O)C[C@]2(C)[C@@]1(O)C(=O)CO (stereo partly drawn) was run?
The viability was 127.

How did the viability turn out when C[C@@H](N)c1ccc(C(=O)Nc2ccnc3[nH]ccc23)cc1 was run?
Its viability is 139.

For CCc1cc(-c2n[nH]c(C)c2-c2ccc3c(c2)OCCO3)c(O)cc1O, which viability is on record?
Its viability is 88.7.

How did the viability turn out when CC(C)c1ccc2oc3nc(N)c(C(=O)O)cc3c(=O)c2c1 was run?
The viability was 116.

With CCC(=O)NC[C@H](Cc1ccc(OCCc2nc(-c3ccccc3)oc2C)cc1)N/C(C)=C\C(=O)c1ccc(C(F)(F)F)cc1 as the compound, how does the viability read?
Its viability is 109.

With CC(C)[C@H](O)C(=O)N[C@@H](C)C(=O)N[C@@H]1C(=O)N(C)CCc2ccccc21 as the compound, how does the viability read?
Its viability is 84.6.

With CC(C)Oc1ccc(C(=O)N[C@H](CNC(=O)CN(C)C)Cc2ccc(-c3cn4cccc([C@H](C)O)c4n3)cc2)cc1Cl as the compound, how does the viability read?
The viability was 98.1.

With O=C(c1ccc(F)cc1)C1CCN(CCn2c(=O)[nH]c3ccccc3c2=O)CC1 as the compound, how does the viability read?
The viability was 110.

CO[C@@H](C(=O)N1Cc2[nH]nc(NC(=O)c3ccc(N4CCN(C)CC4)cc3)c2C1)c1ccccc1 was tested. Which viability did it give?
The viability was 63.5.

For CC(C)(CO)[C@@H](O)C(=O)NCCC(=O)O, which viability is on record?
The viability was 82.6.

Which viability does the source give for O=C(CCCN1CCC(O)(c2ccc(Cl)cc2)CC1)c1ccc(F)cc1 here?
The viability was 105.

How did the viability turn out when COC1=CC=CC(=C1N)\C2=C\C(=O)C3=C(O2)C=CC=C3 was run?
Its viability is 57.1.

Which viability does the source give for CC1=CC=C2N=C(NC(=O)CS\C3=N\C4=C(\SCC4)C(=O)N3C5=CC=CC=C5)SC2=C1 here?
Its viability is 109.

With C[C@H](NCc1ccc(OCc2cccc(F)c2)cc1)C(N)=O as the compound, how does the viability read?
Its viability is 80.3.

How did the viability turn out when CC1CNc2c(cccc2[S+](=O)([O-])N[C@@H](CCCNC(=N)N)C(=O)N2CC[C@@H](C)C[C@@H]2C(=O)O)C1 (stereo partly drawn) was run?
Its viability is 125.

For CC[C@@H]([C@H](C)O)n1ncn(-c2ccc(N3CCN(c4ccc(OCC5CO[C@@](Cn6cncn6)(c6ccc(F)cc6F)C5)cc4)CC3)cc2)c1=O (stereo partly drawn), which viability is on record?
Its viability is 101.

With NC(CO)(CO)CCc1ccc(Sc2cccc(OCc3ccccc3)c2)cc1Cl as the compound, how does the viability read?
Its viability is 118.

Which viability does the source give for CN(C)Cc1cccc(N/C(=C2\C(=O)Nc3cc(C(=O)N(C)C)ccc32)c2ccccc2)c1 here?
The viability was 95.1.

For CCC1=C(C)CN(C(=O)NCCc2ccc(S(=O)(=O)NC(=O)N[C@H]3CC[C@H](C)CC3)cc2)C1=O, which viability is on record?
Its viability is 113.

For CC(c1cc2ccccc2s1)N(O)C(N)=O (stereo not drawn), which viability is on record?
Its viability is 96.7.

Cc1cc(Cl)ccc1OCCCC(=O)NO was tested. Which viability did it give?
Its viability is 89.3.

How did the viability turn out when CN[S+](=O)([O-])Cc1ccc2[nH]cc(CCN(C)C)c2c1 was run?
The viability was 126.

How did the viability turn out when C[C@]12CCC3c4ccc(O)cc4CCC3C1CCC2=O (stereo partly drawn) was run?
Its viability is 94.8.

For CC[C@H]1OC(=O)[C@H](C)[C@@H](O[C@H]2C[C@@](C)(OC)[C@@H](O)[C@H](C)O2)[C@H](C)[C@@H](O[C@@H]2O[C@@H](C)C[C@H](N(C)C)[C@H]2O)[C@](C)(O)C[C@@H](C)C(=O)[C@H](C)[C@@H](O)[C@]1(C)O, which viability is on record?
Its viability is 116.

Which viability does the source give for COc1ccc2[nH]c([S+]([O-])Cc3ncc(C)c(OC)c3C)nc2c1 (stereo not drawn) here?
Its viability is 88.8.

For C[C@@]1(C(=O)Nc2ccc(F)nc2)CCCN1c1nc(Nc2cc(C3CC3)[nH]n2)c2cccn2n1, which viability is on record?
Its viability is 63.1.

Which viability does the source give for C[S+](=O)([O-])c1ccc([C@@H](O)[C@@H](CO)NC(=O)C(Cl)Cl)cc1 here?
The viability was 126.

Which viability does the source give for CCCCOCCOc1nc(-c2ccc(C(=O)O)c(F)c2)sc1C here?
The viability was 105.

Nc1nc2ccc(OC(F)(F)F)cc2s1 was tested. Which viability did it give?
Its viability is 86.9.

For C[C@@H](Cc1cc2c(c(C(N)=O)c1)N(CCCO)CC2)NCCOc1ccccc1OCC(F)(F)F, which viability is on record?
Its viability is 112.

Which viability does the source give for CCN1CCC(n2cc(CNc3cc(Cl)c4ncc(C#N)c(Nc5ccc(F)c(Cl)c5)c4c3)nn2)CC1 here?
Its viability is 97.

How did the viability turn out when COc1cc(N2CCC(N3CCN(C)CC3)CC2)ccc1Nc1ncc(Cl)c(Nc2ccccc2[S+](=O)([O-])C(C)C)n1 was run?
Its viability is 73.5.

How did the viability turn out when O=C1CCC[C@@H]2[C@H]3CCCN4CCC[C@@H](CN12)[C@@H]34 was run?
Its viability is 117.

NC1=NC=C(C=C1)C2=CC=C3N=CC\4=C(N(C(=O)\C=C4)C5=CC(=CC=C5)C(F)(F)F)C3=C2 was tested. Which viability did it give?
The viability was 43.7.

For O=[N+]([O-])c1cn2c(n1)OC[C@@H](OCc1ccc(OC(F)(F)F)cc1)C2, which viability is on record?
The viability was 111.

For Cc1c(O)cccc1C(=O)N[C@@H](CSc1ccccc1)[C@H](O)CN1C[C@H]2CCCC[C@H]2C[C@H]1C(=O)NC(C)(C)C, which viability is on record?
The viability was 126.

How did the viability turn out when O=C(O)c1ccc(O)c2ncc(N3CCOCC3)cc12 was run?
Its viability is 96.

O=C(NCc1ccncc1)C12C[C@H]3C[C@@H](C1)CC(c1ccc(Cl)cc1)(C3)C2 was tested. Which viability did it give?
Its viability is 108.

NC(=O)c1ccc(N(C(N)=O)c2c(F)cccc2F)nc1-c1ccc(F)cc1F was tested. Which viability did it give?
The viability was 109.

Which viability does the source give for NCCCC(N)(C(=O)O)C(F)F (stereo not drawn) here?
Its viability is 114.

How did the viability turn out when CC(=O)NCCC(=O)N[C@@H](CCC(N)=O)C(=O)N[C@@H](CO)C(=O)N[C@@H](CCC(N)=O)C(=O)N[C@@H](CCC(N)=O)C(=O)N[C@H](C(=O)N[C@@H](Cc1ccccc1)C(=O)N[C@]1(C)CCCCCC/C=C\CCC[C@@](C)(C(=O)N[C@@H](CCC(N)=O)C(=O)N[C@@H](CC(N)=O)C(N)=O)NC(=O)[C@H](CC(C)C)NC(=O)[C@H](CC(C)C)NC(=O)[C@@H](CCCNC(=N)N)NC(=O)[C@H](Cc2c[nH]c3ccccc23)NC(=O)[C@H](CC(C)C)NC(=O)[C@H](CC(N)=O)NC1=O)[C@H](C)O was run?
Its viability is 99.6.

OC[C@H]1O[C@H]([C@H](O)[C@@H]1O)N2\C=C/C(=O)NC2=O was tested. Which viability did it give?
The viability was 121.

With O=C(O)c1nn(Cc2ccc(Cl)cc2Cl)c2ccccc12 as the compound, how does the viability read?
The viability was 99.7.

For CC(N[C@H]1CCCC[C@@H]1NC(=O)c1ccc(Cl)cc1)c1cccc2ccccc12 (stereo partly drawn), which viability is on record?
Its viability is 91.2.

Which viability does the source give for CCOc1cc2c(c(F)c1OCC)C(=N)N(CC(=O)c1cc(N3CCOCC3)c(OC)c(C(C)(C)C)c1)C2 here?
Its viability is 124.

With O=C(O)c1cc(/N=N/c2ccc([S+](=O)([O-])Nc3ccccn3)cc2)ccc1O as the compound, how does the viability read?
The viability was 121.

With OC[C@H]1O[C@@H](O[C@@H]2O\C=C(/[C@H]3C\C=C(CO)/[C@@H]23)C(O)=O)[C@H](O)[C@@H](O)[C@@H]1O as the compound, how does the viability read?
The viability was 124.

OC1=CC2=C(C(=O)\C=C(/O2)C3=CC=CC=C3)C(=C1O)O was tested. Which viability did it give?
The viability was 114.

With O=C(Nc1c(Cl)cncc1Cl)c1ccc(OC(F)F)c(OCC2CC2)c1 as the compound, how does the viability read?
Its viability is 125.

For NCCS(=O)(=O)O, which viability is on record?
The viability was 123.

With O=[N+]([O-])c1cnc(Sc2nnc(O)n2-c2ccc3c(c2)OCCO3)s1 as the compound, how does the viability read?
Its viability is 91.3.

For OCCn1cc(-c2ccc3c(c2)CC/C3=N\O)c(-c2ccncc2)n1, which viability is on record?
Its viability is 94.5.

Which viability does the source give for O=P1(N(CCCl)CCCl)NCCCO1 (stereo not drawn) here?
Its viability is 116.

CNC(=O)c1cc(Oc2ccc(NC(=O)Nc3ccc(Cl)c(C(F)(F)F)c3)cc2)ccn1 was tested. Which viability did it give?
The viability was 87.

CC(C)(C)C1=CC(=C(NC(=O)C/2=C/NC3=C(C=CC=C3)C2=O)C=C1O)C(C)(C)C was tested. Which viability did it give?
The viability was 114.

With CC12CC3CC(C)(C1)CC(N)(C3)C2 as the compound, how does the viability read?
The viability was 117.

How did the viability turn out when Cc1cccc(C)c1NC(=O)CN1CCCC1=O was run?
Its viability is 106.

With N#Cc1cc(NC(=O)Nc2nnc(-c3ccncc3)s2)ccc1-c1cn[nH]c1 as the compound, how does the viability read?
The viability was 101.

With COc1ccc(C(C)=O)c(O)c1 as the compound, how does the viability read?
The viability was 103.

COc1ccc(C[C@@H](C)[C@@H](C)Cc2ccc(OC)c(OC)c2)cc1OC was tested. Which viability did it give?
The viability was 122.

For CC(=O)N1CCN(c2ccc(OC[C@H]3CO[C@](Cn4ccnc4)(c4ccc(Cl)cc4Cl)O3)cc2)CC1, which viability is on record?
The viability was 104.

For Cl.c1cnc2cc3c(cc2n1)C1CNCC3C1, which viability is on record?
The viability was 107.

O=C(Nc1cc2cc[nH]c2cn1)c1ccccc1 was tested. Which viability did it give?
The viability was 55.2.

With C[C@@H](N)C1CC[C@@H](CC1)C(=O)NC2=CC=NC=C2 (stereo partly drawn) as the compound, how does the viability read?
The viability was 152.

C[S+](=O)([O-])c1ccc(-c2cnc(N)c(C(=O)Nc3ccccc3)n2)cc1 was tested. Which viability did it give?
Its viability is 132.

Which viability does the source give for O=C(Nc1cc(Cl)cc2c1[nH]c1cnccc12)c1cccnc1 here?
The viability was 56.8.

Cc1ccnc2c1NC(=O)c1cccnc1N2C1CC1 was tested. Which viability did it give?
The viability was 138.

With COc1ccccc1N1CCN(CC(O)COc2cccc3ccccc23)CC1 (stereo not drawn) as the compound, how does the viability read?
The viability was 99.1.

How did the viability turn out when CCn1c(C(=O)N(C2CC2)C2CC2)cc2c3c(ncn3C)c(Nc3cc(C)n(C)n3)nc21 was run?
The viability was 118.

For C/C=C/C/C=C/CCC(=O)[C@H]1O[C@H]1C(N)=O, which viability is on record?
The viability was 93.5.

For CC1=C(/C=C/C(C)=C/C=C/C(C)=C/C(=O)O)C(C)(C)CCC1, which viability is on record?
The viability was 86.6.

How did the viability turn out when N#C/C(=C1/Nc2ccccc2S1)c1ccnc(OCc2ccc(CN3CCOCC3)cc2)n1 was run?
The viability was 91.3.

How did the viability turn out when COC[C@@H](NC(C)=O)C(=O)NCc1ccccc1 was run?
Its viability is 133.

Which viability does the source give for CN(C)[C@H]\1[C@@H]2[C@@H](O)[C@H]3\C(=C(O)/[C@]2(O)C(=O)\C(=C1O)C(N)=O)C(=O)C4=C(C=CC=C4O)[C@@]3(C)O here?
Its viability is 114.

Cc1cccc2c1CC[C@H](CN1CCC(c3c(Cl)cccc3Cl)CC1)C[C@@H]2O was tested. Which viability did it give?
The viability was 89.

For OC[C@H](Cc1ccccc1)Nc1nc(Oc2ccc3c(c2)CCC3)nc2c1ncn2Cc1ccc(-c2ccccc2)cc1, which viability is on record?
Its viability is 101.

How did the viability turn out when CCCCN(CCCC)CC(O)c1cc(Cl)cc2c1-c1ccc(Cl)cc1/C2=C/c1ccc(Cl)cc1 (stereo not drawn) was run?
Its viability is 104.

From the supplement of paper PMC6723410
